The text below walks through data of patent EP1382597A2, “Steroid receptor modulator compounds and methods” (LIGAND PHARMACEUTICALS, INC., priority 1994, dated 1996).

Test [1] concerns the target T1, human PR-B (Homo sapiens, UniProt P06401).
T1 construct: expressed in transfected cells; host or cells: CV-1 cells (African green monkey kidney fibroblasts), transient transfection
T1 sequence (P06401 1-933): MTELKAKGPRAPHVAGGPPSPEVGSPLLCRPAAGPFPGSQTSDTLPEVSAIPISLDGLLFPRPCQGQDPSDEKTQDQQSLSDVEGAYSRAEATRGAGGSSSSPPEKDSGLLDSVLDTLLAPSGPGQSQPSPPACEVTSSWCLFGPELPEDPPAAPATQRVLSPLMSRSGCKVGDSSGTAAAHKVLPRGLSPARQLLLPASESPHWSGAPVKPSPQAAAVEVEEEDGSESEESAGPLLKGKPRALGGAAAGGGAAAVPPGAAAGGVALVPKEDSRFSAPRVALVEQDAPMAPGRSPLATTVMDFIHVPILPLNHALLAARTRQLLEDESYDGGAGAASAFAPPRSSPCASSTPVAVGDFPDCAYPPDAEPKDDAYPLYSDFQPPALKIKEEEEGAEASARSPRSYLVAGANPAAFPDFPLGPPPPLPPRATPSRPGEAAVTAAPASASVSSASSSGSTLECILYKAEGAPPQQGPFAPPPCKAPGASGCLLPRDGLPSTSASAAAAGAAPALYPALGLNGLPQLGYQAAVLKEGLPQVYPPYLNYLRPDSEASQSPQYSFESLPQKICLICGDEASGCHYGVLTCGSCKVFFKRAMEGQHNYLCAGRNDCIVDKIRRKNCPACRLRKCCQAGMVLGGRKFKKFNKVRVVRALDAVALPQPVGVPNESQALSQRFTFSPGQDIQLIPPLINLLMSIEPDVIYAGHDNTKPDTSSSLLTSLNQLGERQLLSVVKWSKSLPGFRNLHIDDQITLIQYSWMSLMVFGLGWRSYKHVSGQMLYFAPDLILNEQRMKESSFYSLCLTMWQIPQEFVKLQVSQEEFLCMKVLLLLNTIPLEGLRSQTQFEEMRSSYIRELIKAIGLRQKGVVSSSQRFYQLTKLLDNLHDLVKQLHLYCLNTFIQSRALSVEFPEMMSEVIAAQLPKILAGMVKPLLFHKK
Nature of the test: Co-transfection assay, PR antagonist activity.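 Also: monkey kidney fibroblasts co-transfected with receptor expression plasmid and hormone-responsive luciferase reporter, antagonism read as reduced luciferase signal.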 Format: cell-based. Particulars: CV-1, read-out: PR Antagonist CV-1 Cells Efficacy (%).

Test [2] deals with T1, human PR-B. As to the kind of experiment: Co-transfection assay, PR agonist activity.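 As to all read-outs here: CV-1 cells (African green monkey kidney) co-transfected with receptor plasmid and hormone-responsive firefly luciferase reporter, agonism read as compound-dependent rise in luciferase signal.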 In kind it is cell-based. As to conditions: for Emax: CV-1, read-out: PR Agonist CV-1 Cells Efficacy (%).

Consider `CC1=CC(C)(C)Nc2ccc3c(c21)C(C)Oc1ccc(Cl)cc1-3` (racemic) [Compound 332, (R/S)-9-Chloro-1,2-dihydro-2,2,4,5-tetramethyl-5H-chromeno[3,4-f]quinoline], for which the Emax at human PR-B [1] is below 20%; at human PR-B [2] it was 138%.

With `CC1(C)Nc2ccc3c(c2C(=O)C1(C)C)C(c1ccc(Cl)cc1)Oc1ccccc1-3` (racemic) [Compound 379, (R/S)-5-(4-Chlorophenyl)-1,2,3,4-tetrahydro-2,2,3,3-tetramethyl-5H-chromeno[3,4-f]-4-quinolinone], the Emax is 87% on human PR-B [1] and below 20% on human PR-B [2].

On to `CCCCC1Oc2ccccc2-c2ccc3c(c21)C(C)C(O)(CCCC)C(C)(C)N3` (racemic) [Compound 385, (R/S)-3,5-Dibutyl-1,2,3,4-tetrahydro-3-hydroxy-2,2,4-trimethyl-5H-chromeno[3,4-f]quinoline], for which the Emax at human PR-B [1] was 45%; on human PR-B [2], 27%.

Take `CC1C(=O)C(C)(C)Nc2ccc3c(c21)/C(=C/c1cccc(F)c1)Oc1ccccc1-3` (racemic) [Compound 389, (Z)-(R/S)-5-(3-Fluorobenzylidene)-1,2,3,4-tetrahydro-2,2,4-trimethyl-5H-chromeno[3,4-f]-3-quinolinone]: the Emax on human PR-B [1] was below 20%; on human PR-B [2], 133%.

As to `CC1CC(C)(C)Nc2ccc(-c3cc(F)cc(C#N)c3)cc21` (racemic) [Compound 455, (R/S)-6-(3-Cyano-5-fluorophenyl)-1,2,3,4-Tetrahydro-2,2,4-trimethylquinoline], the Emax was 76% on human PR-B [1] and below 20% at human PR-B [2].

As to `CCCO[C@@H]1[C@@H](C)c2c(ccc3c2[C@H](c2ccc(Cl)cc2)Oc2ccccc2-3)NC1(C)C` (relative stereo) [Compound 400, (R/S-3l,4u,5u)-5-(4-Chlorophenyl)-1,2,3,4-tetrahydro-3-propyloxy-2,2,4-trimethyl-5H-chromeno[3,4-f]quinoline], the figures for the Emax on human PR-B [1] and on human PR-B [2] were 68% and below 20%, respectively.

As to `CC1=CC(C)(C)Nc2ccc(-n3cnc(Cl)c3Cl)cc21` [Compound 103, 6-(4,5-Dichloroimidazol-1-yl)-1,2-dihydro-2,2,4-trimethylquinoline], the Emax is 91% on human PR-B [1] and below 20% on human PR-B [2].

Take `CC1=CC(C)(C)Nc2ccc(-c3nn(C)cc3Br)cc21` [Compound 104, 6-(4-Bromo-1-methylpyrazol-3-yl)-1,2-dihydro-2,2,4-trimethylquinoline]: the Emax turned out to be 71% at human PR-B [1] and 39% at human PR-B [2].

`CC1=CC(C)(C)Nc2ccc(-c3cccc(Cl)c3Cl)cc21` [Compound 109, 6-(2,3-Dichlorophenyl)-1,2-dihydro-2,2,4-trimethylquinoline]: the Emax was 87% on human PR-B [1] and below 20% at human PR-B [2].

Take `CC1=CC(C)(C)Nc2ccc3c(c21)/C(=C/c1ccccc1)Oc1ccccc1-3` [Compound 220, (Z)-5-Benzylidene-1,2-dihydro-2,2,4-trimethyl-5H-chromeno[3,4-f]quinoline]: the Emax was below 20% at human PR-B [1] and 147% on human PR-B [2].

On to `CC1=CC(C)(C)Nc2ccc3c(c21)/C(=C/c1ccc(F)cc1)Oc1ccccc1-3` [Compound 221, (Z)-5-(4-Fluorobenzylidene)-1,2-dihydro-2,2,4-trimethyl-5H-chromeno[3,4-f]quinoline], for which the Emax at human PR-B [1] was below 20%; on human PR-B [2] it was 105%.

In the case of `CC1=CC(C)(C)Nc2ccc3c(c21)/C(=C/c1ccccc1F)Oc1ccccc1-3` [Compound 228, (Z)-5-(2-Fluorobenzylidene)-1,2-dihydro-2,2,4-trimethyl-5H-chromeno[3,4-f]quinoline], the Emax at human PR-B [1] was below 20%; at human PR-B [2], 114%.

With `CC1=CC(C)(C)Nc2ccc(-c3cc(F)cc(C#N)c3)cc21` [Compound 271, 6-(3-Cyano-5-fluorophenyl)-1,2-dihydro-2,2,4-trimethylquinoline], on human PR-B [2] (cv-1 cells), the “PR Agonist CV-1 Cells Efficacy (%)” value is “na (key: na = not active (i.e. efficacy of <20 and potency of >10,000))”.
